Measured values from patent US9938281B2 (Merck Sharp & Dohme Corp., priority 2012, dated 2018).

What was measured:
PI3K-delta = target: T1, PI3K-delta (Homo sapiens, UniProt O00329); test: HTRF PI3K biochemical assay, delta isoform; conditions: form screened (neutral or TFA salt) given, read-out: PI3Kdelta IC50
T1 construct: purchased Upstate; Millipore 14-604

PI3K-alpha = target: T2, PI3K-alpha (Homo sapiens, UniProt P42336); test: HTRF PI3K biochemical assay, alpha isoform; conditions: ratio PI3K-alpha IC50 value / PI3K-delta IC50 value
T2 construct: purchased Upstate; Millipore 14-602
T2 sequence (P42336 whole entry, canonical isoform): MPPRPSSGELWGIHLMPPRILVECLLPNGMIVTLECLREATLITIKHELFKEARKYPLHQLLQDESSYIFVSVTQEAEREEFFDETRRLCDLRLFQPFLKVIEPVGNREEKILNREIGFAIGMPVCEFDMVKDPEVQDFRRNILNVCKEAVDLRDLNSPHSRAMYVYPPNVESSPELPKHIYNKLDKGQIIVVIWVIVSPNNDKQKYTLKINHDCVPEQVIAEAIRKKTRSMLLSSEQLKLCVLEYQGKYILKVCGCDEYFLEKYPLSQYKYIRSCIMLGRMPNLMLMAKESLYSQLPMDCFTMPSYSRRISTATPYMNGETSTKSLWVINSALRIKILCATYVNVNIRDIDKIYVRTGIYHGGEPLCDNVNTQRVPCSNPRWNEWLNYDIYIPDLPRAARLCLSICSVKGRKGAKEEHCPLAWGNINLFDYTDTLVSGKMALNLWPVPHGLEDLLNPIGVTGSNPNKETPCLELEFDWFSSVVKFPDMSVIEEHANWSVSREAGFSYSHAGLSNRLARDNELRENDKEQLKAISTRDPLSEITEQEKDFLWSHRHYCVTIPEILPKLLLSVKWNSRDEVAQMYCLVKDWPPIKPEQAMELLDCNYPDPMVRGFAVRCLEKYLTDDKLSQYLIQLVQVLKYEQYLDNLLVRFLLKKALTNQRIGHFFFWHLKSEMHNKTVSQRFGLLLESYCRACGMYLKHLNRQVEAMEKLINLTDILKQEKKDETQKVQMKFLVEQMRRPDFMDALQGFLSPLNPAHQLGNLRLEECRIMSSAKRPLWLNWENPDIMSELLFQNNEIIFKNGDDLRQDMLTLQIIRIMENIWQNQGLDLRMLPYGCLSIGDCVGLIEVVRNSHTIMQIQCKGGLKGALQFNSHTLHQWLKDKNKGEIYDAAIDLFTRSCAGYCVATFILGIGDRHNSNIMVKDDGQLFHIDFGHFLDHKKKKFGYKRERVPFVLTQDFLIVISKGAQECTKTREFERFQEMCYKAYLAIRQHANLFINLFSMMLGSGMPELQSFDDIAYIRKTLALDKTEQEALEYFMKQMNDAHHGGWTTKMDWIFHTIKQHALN
T2 sequence (P27986 whole entry partner, canonical isoform): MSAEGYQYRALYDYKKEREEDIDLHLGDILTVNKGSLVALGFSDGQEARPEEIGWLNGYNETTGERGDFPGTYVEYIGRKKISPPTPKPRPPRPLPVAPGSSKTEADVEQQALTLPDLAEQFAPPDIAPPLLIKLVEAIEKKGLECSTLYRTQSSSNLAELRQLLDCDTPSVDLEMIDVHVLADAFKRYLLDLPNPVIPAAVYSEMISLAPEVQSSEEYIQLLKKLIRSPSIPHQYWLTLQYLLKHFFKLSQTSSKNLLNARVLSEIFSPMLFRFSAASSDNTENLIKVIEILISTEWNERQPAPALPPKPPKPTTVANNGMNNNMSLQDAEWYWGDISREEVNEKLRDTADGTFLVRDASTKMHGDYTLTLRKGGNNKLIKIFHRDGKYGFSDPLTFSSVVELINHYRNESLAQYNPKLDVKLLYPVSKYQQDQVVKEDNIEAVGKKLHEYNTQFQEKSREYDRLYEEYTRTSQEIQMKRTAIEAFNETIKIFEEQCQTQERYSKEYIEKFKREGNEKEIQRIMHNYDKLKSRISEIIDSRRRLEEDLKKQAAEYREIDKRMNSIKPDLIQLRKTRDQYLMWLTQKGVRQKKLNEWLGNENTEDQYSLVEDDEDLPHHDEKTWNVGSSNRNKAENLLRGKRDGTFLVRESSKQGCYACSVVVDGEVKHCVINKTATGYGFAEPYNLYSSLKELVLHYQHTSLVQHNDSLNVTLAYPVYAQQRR

T1 sequence (O00329 whole entry, canonical isoform): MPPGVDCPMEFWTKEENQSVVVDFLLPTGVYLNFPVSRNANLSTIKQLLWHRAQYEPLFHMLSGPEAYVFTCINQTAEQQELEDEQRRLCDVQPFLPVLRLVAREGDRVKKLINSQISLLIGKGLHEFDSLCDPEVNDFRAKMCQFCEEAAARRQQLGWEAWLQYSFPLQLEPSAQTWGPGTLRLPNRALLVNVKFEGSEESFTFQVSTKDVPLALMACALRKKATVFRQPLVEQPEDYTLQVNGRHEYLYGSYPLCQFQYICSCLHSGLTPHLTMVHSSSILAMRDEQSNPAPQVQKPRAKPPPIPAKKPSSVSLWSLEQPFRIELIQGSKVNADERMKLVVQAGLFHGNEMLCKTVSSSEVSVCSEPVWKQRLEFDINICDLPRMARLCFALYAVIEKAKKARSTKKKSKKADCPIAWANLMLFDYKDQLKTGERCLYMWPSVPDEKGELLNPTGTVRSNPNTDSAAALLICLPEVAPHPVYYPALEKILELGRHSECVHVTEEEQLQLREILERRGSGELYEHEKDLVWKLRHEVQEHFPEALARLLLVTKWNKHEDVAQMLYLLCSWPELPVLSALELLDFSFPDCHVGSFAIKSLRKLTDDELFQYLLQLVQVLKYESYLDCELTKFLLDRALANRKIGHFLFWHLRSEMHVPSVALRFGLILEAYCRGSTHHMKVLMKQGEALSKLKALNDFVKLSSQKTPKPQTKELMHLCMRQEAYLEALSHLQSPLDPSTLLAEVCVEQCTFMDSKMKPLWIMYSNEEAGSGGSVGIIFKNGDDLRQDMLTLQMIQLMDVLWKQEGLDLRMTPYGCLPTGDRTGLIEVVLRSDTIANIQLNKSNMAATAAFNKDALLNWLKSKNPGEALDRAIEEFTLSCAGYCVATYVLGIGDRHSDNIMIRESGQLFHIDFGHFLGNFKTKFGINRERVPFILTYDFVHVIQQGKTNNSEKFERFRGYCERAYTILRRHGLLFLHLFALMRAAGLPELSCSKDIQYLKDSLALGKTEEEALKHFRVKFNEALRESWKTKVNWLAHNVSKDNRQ
T1 sequence (P27986 whole entry partner, canonical isoform): as the sequence (P27986 whole entry partner, canonical isoform) above

CCC(=O)N1CC[C@H](Nc2ncnc3c2nc(CC(C)C)n3C)C1 [Compound 7-3, 9-methyl-8-(2-methylpropyl)-N-[(3S)-1-propanoylpyrrolidin-3-yl]-9H-purin-6-amine]
IC50 (PI3K-delta): 140 nM
Selectivity versus PI3Kalpha (PI3K-alpha): >10

CCC(=O)N1CC[C@H](Nc2ncnc3c2nc(C)n3CC)C1 [Compound 7-4, 9-ethyl-8-methyl-N-[(3S)-1-propanoylpyrrolidin-3-yl]-9H-purin-6-amine]
IC50 (PI3K-delta): 500 nM
Selectivity versus PI3Kalpha (PI3K-alpha): >10

CCn1c(C(C)C)nc2c(N[C@H]3CCN(C(=O)C4CC4)C3)ncnc21 [Compound 7-5, N-[(3S)-1-(cyclopropylcarbonyl)pyrrolidin-3-yl]-9-ethyl-8-(1-methylethyl)-9H-purin-6-amine]
IC50 (PI3K-delta): 130 nM
Selectivity versus PI3Kalpha (PI3K-alpha): >10

CCn1c(CCCO)nc2c(N[C@H]3CCN(C(=O)C4CC4)C3)ncnc21 [Compound 7-6, 3-(6-{[(3S)-1-(cyclopropylcarbonyl)pyrrolidin-3-yl]amino}-9-ethyl-9H-purin-8-yl)propan-1-ol]
IC50 (PI3K-delta): 110 nM
Selectivity versus PI3Kalpha (PI3K-alpha): >10

CCn1c(CC(F)(F)F)nc2c(N[C@H]3CCN(C(=O)C4CC4)C3)ncnc21 [Compound 7-7, N-[(3S)-1-(cyclopropylcarbonyl)pyrrolidin-3-yl]-9-ethyl-8-(2,2,2-trifluoroethyl)-9H-purin-6-amine]
IC50 (PI3K-delta): 770 nM
Selectivity versus PI3Kalpha (PI3K-alpha): >10

CCn1c(COC)nc2c(N[C@H]3CCN(C(=O)C4CC4)C3)ncnc21 [Compound 7-8, N-[(3S)-1-(cyclopropylcarbonyl)pyrrolidin-3-yl]-9-ethyl-8-(methoxymethyl)-9H-purin-6-amine]
IC50 (PI3K-delta): 190 nM
Selectivity versus PI3Kalpha (PI3K-alpha): >10

CCC(=O)N1CC[C@H](Nc2ncnc3c2nc(C2CC2)n3C)C1 [Compound 7-9, 8-cyclopropyl-9-methyl-N-[(3S)-1-propanoylpyrrolidin-3-yl]-9H-purin-6-amine]
IC50 (PI3K-delta): 98 nM
Selectivity versus PI3Kalpha (PI3K-alpha): >10

CCn1c(C2CC2)nc2c(N[C@H]3CCN(C(=O)C4CC4)C3)ncnc21 [Compound 7-10, 8-cyclopropyl-N-[(3S)-1-(cyclopropylcarbonyl)pyrrolidin-3-yl]-9-ethyl-9H-purin-6-amine]
IC50 (PI3K-delta): 120 nM
Selectivity versus PI3Kalpha (PI3K-alpha): >10

CCC(=O)N1CC[C@H](Nc2ncnc3c2nc(C(F)(F)F)n3CC)C1 [Compound 7-11, 9-ethyl-N-[(3S)-1-propanoylpyrrolidin-3-yl]-8-(trifluoromethyl)-9H-purin-6-amine]
IC50 (PI3K-delta): 14 nM
Selectivity versus PI3Kalpha (PI3K-alpha): >10

CCn1c(C(F)F)nc2c(N[C@H]3CCN(C(=O)c4ccn(C)n4)C3)ncnc21 [Compound 7-12, 8-(difluoromethyl)-9-ethyl-N-{(3S)-1-[(1-methyl-1H-pyrazol-3-yl)carbonyl]pyrrolidin-3-yl}-9H-purin-6-amine]
IC50 (PI3K-delta): 39 nM
Selectivity versus PI3Kalpha (PI3K-alpha): >10

CCC(=O)N1CC[C@H](Nc2ncnc3c2nc(C(F)F)n3CC)C1 [Compound 7-13, 8-(difluoromethyl)-9-ethyl-N-[(3S)-1-propanoylpyrrolidin-3-yl]-9H-purin-6-amine]
IC50 (PI3K-delta): 32 nM
Selectivity versus PI3Kalpha (PI3K-alpha): >10

CCn1c(C(F)F)nc2c(N[C@H]3CCN(C(=O)C4CC4)C3)ncnc21 [Compound 7-14, N-[(3S)-1-(cyclopropylcarbonyl)pyrrolidin-3-yl]-8-(difluoromethyl)-9-ethyl-9H-purin-6-amine]
IC50 (PI3K-delta): 22 nM
Selectivity versus PI3Kalpha (PI3K-alpha): >10

CCn1c(C(F)F)nc2c(N[C@H]3CCN(C(=O)C4CCC4)C3)ncnc21 [Compound 7-15, N-[(3S)-1-(cyclobutylcarbonyl)pyrrolidin-3-yl]-8-(difluoromethyl)-9-ethyl-9H-purin-6-amine]
IC50 (PI3K-delta): 7.6 nM
Selectivity versus PI3Kalpha (PI3K-alpha): >10

CCn1c(C(F)F)nc2c(N[C@H]3CCN(C(=O)c4cocn4)C3)ncnc21 [Compound 7-16, 8-(difluoromethyl)-9-ethyl-N-[(3S)-1-(1,3-oxazol-4-ylcarbonyl)pyrrolidin-3-yl]-9H-purin-6-amine]
IC50 (PI3K-delta): 120 nM
Selectivity versus PI3Kalpha (PI3K-alpha): >10
